# Source: ChEMBL document CHEMBL3045943, “Novel N-aryl(alkaryl)-2-[(3-R-2-oxo-2H-[1,2,4]triazino[2,3-c]quinazoline-6-yl)thio]acetamides: synthesis, cytotoxicity, anticancer activity, COMPARE analysis and docking” (2013)
# How the values were obtained:
# Format in all cases: functional
# MDA-MB-435 = assay: Cytotoxicity against Homo sapiens (human) MDA-MB-435 cells assessed as cell growth at 10 uM after 48 hr by SRB assay relative to control; conditions: MDA-MB-435, 48 h, read-out: Activity
# SK-MEL-5 = assay: Cytotoxicity against Homo sapiens (human) SK-MEL-5 cells assessed as cell growth at 10 uM after 48 hr by SRB assay relative to control; conditions: SK-MEL-5, 48 h, read-out: Activity
# MDA-MB-231 = assay: Cytotoxicity against Homo sapiens (human) MDA-MB-231 cells assessed as cell growth at 10 uM after 48 hr by SRB assay relative to control; conditions: MDA-MB-231, 48 h, read-out: Activity
# RXF 393 = assay: Cytotoxicity against Homo sapiens (human) RXF393 cells assessed as cell growth at 10 uM after 48 hr by SRB assay relative to control; conditions: RXF 393, 48 h, read-out: Activity
# BT-549 = assay: Cytotoxicity against Homo sapiens (human) BT549 cells assessed as cell growth at 10 uM after 48 hr by SRB assay relative to control; conditions: BT-549, 48 h, read-out: Activity
# [1] = system: Photobacterium leiognathi; assay: Growth inhibition of Photobacterium leiognathi Sh1 assessed as bio-luminescence at 0.1 mg/ml after 10 min by acute action test relative to control; design: scale not given: the % may be the effect or the level left
# [2] = system: Photobacterium leiognathi; assay: Growth inhibition of Photobacterium leiognathi Sh1 assessed as bio-luminescence at 0.025 mg/ml after 10 min by acute action test relative to control; design: scale not given: the % may be the effect or the level left
# 786-0 = assay: Cytotoxicity against Homo sapiens (human) 786-0 cells assessed as cell growth at 10 uM after 48 hr by SRB assay relative to control; conditions: 786-0, 48 h, read-out: Activity
# OVCAR-8 = assay: Cytotoxicity against Homo sapiens (human) OVCAR8 cells assessed as cell growth at 10 uM after 48 hr by SRB assay relative to control; conditions: OVCAR-8, 48 h, read-out: Activity
# [3] = system: Photobacterium leiognathi; assay: Growth inhibition of Photobacterium leiognathi Sh1 assessed as bio-luminescence at 0.025 mg/ml after 16 to 18 hr by chronic action test relative to control; design: scale not given: the % may be the effect or the level left
# SF-539 = assay: Cytotoxicity against Homo sapiens (human) SF539 cells assessed as cell growth at 10 uM after 48 hr by SRB assay relative to control; conditions: SF-539, 48 h, read-out: Activity
# NCI-H460 = assay: Cytotoxicity against Homo sapiens (human) NCI-H460 cells assessed as cell growth at 10 uM after 48 hr by SRB assay relative to control; conditions: NCI-H460, 48 h, read-out: Activity
# [4] = system: Photobacterium leiognathi; assay: Growth inhibition of Photobacterium leiognathi Sh1 assessed as bio-luminescence at 0.25 mg/ml after 10 min by acute action test relative to control; design: scale not given: the % may be the effect or the level left
# HT-29 = assay: Cytotoxicity against Homo sapiens (human) HT-29 cells assessed as cell growth at 10 uM after 48 hr by SRB assay relative to control; conditions: HT-29, 48 h, read-out: Activity
# MCF7 = assay: Cytotoxicity against Homo sapiens (human) MCF7 cells assessed as cell growth at 10 uM after 48 hr by SRB assay relative to control; conditions: MCF7, 48 h, read-out: Activity
# LOX IMVI = assay: Cytotoxicity against Homo sapiens (human) LOXIMVI cells assessed as cell growth at 10 uM after 48 hr by SRB assay relative to control; conditions: read-out: Activity
# HOP-92 = assay: Cytotoxicity against Homo sapiens (human) HOP92 cells assessed as cell growth at 10 uM after 48 hr by SRB assay relative to control; conditions: HOP-92, 48 h, read-out: Activity
# [5] = Cytotoxicity against Homo sapiens (human) NCI-ADR-RES cells assessed as cell growth at 10 uM after 48 hr by SRB assay relative to control; conditions: read-out: Activity
# SNB-75 = assay: Cytotoxicity against Homo sapiens (human) SNB75 cells assessed as cell growth at 10 uM after 48 hr by SRB assay relative to control; conditions: SNB-75, 48 h, read-out: Activity
# Hs-578T = assay: Cytotoxicity against Homo sapiens (human) Hs 578T cells assessed as cell growth at 10 uM after 48 hr by SRB assay relative to control; conditions: read-out: Activity
# Malme-3M = assay: Cytotoxicity against Homo sapiens (human) MALME-3M cells assessed as cell growth at 10 uM after 48 hr by SRB assay relative to control; conditions: read-out: Activity
# SN12C = assay: Cytotoxicity against Homo sapiens (human) SN12C cells assessed as cell growth at 10 uM after 48 hr by SRB assay relative to control; conditions: read-out: Activity
# HCT-116 = assay: Cytotoxicity against Homo sapiens (human) HCT116 cells assessed as cell growth at 10 uM after 48 hr by SRB assay relative to control; conditions: HCT-116, 48 h, read-out: Activity
# PC-3 = assay: Cytotoxicity against Homo sapiens (human) PC3 cells assessed as cell growth at 10 uM after 48 hr by SRB assay relative to control; conditions: PC-3, 48 h, read-out: Activity
# SR = assay: Cytotoxicity against Homo sapiens (human) SR cells assessed as cell growth at 10 uM after 48 hr by SRB assay relative to control; conditions: read-out: Activity
# OVCAR-4 = assay: Cytotoxicity against Homo sapiens (human) OVCAR4 cells assessed as cell growth at 10 uM after 48 hr by SRB assay relative to control; conditions: OVCAR-4, 48 h, read-out: Activity
# U-251 = assay: Cytotoxicity against Homo sapiens (human) U251 cells assessed as cell growth at 10 uM after 48 hr by SRB assay relative to control; conditions: U-251, 48 h, read-out: Activity
# A498 = assay: Cytotoxicity against Homo sapiens (human) A498 cells assessed as cell growth at 10 uM after 48 hr by SRB assay relative to control; conditions: A498, 48 h, read-out: Activity
# [6] = system: Photobacterium leiognathi; assay: Growth inhibition of Photobacterium leiognathi Sh1 assessed as bio-luminescence at 0.25 mg/ml after 16 to 18 hr by chronic action test relative to control; design: scale not given: the % may be the effect or the level left
# [7] = system: Photobacterium leiognathi; assay: Growth inhibition of Photobacterium leiognathi Sh1 assessed as bio-luminescence at 0.1 mg/ml after 16 to 18 hr by chronic action test relative to control; design: scale not given: the % may be the effect or the level left
# ACHN = assay: Cytotoxicity against Homo sapiens (human) ACHN cells assessed as cell growth at 10 uM after 48 hr by SRB assay relative to control; conditions: read-out: Activity
# UACC-257 = assay: Cytotoxicity against Homo sapiens (human) UACC257 cells assessed as cell growth at 10 uM after 48 hr by SRB assay relative to control; conditions: UACC-257, 48 h, read-out: Activity
# UO-31 = assay: Cytotoxicity against Homo sapiens (human) UO31 cells assessed as cell growth at 10 uM after 48 hr by SRB assay relative to control; conditions: UO-31, 48 h, read-out: Activity
compound,measurement,setting,value
Cc1ccc(CNC(=O)CSc2nc3ccccc3c3nc(=O)c(-c4ccccc4)nn23)cc1,growth at 10 µM,MDA-MB-435,67.7%
same,growth at 10 µM,SK-MEL-5,81.8%
same,growth at 10 µM,MDA-MB-231,70.5%
same,growth at 10 µM,RXF 393,77.2%
same,growth at 10 µM,BT-549,26.9%
same,Activity,[1],106%
same,Activity,[2],84.6%
same,growth at 10 µM,786-0,80.2%
same,growth at 10 µM,OVCAR-8,60.9%
same,Activity,[3],80%
same,growth at 10 µM,SF-539,48%
same,growth at 10 µM,NCI-H460,72.1%
same,Activity,[4],145.5%
same,growth at 10 µM,HT-29,78.8%
same,growth at 10 µM,MCF7,79.1%
same,growth at 10 µM,LOX IMVI,78.6%
same,growth at 10 µM,HOP-92,85.6%
same,growth at 10 µM,[5],61.4%
same,growth at 10 µM,SNB-75,62.5%
same,growth at 10 µM,Hs-578T,62.3%
same,growth at 10 µM,Malme-3M,77.2%
same,growth at 10 µM,SN12C,78.6%
same,growth at 10 µM,HCT-116,32.5%
same,growth at 10 µM,PC-3,83%
same,growth at 10 µM,SR,71.4%
same,growth at 10 µM,OVCAR-4,74.9%
same,growth at 10 µM,U-251,63%
same,growth at 10 µM,A498,75.5%
same,Activity,[6],140%
same,Activity,[7],112%
same,growth at 10 µM,ACHN,85.8%
same,growth at 10 µM,UACC-257,71.1%
same,growth at 10 µM,UO-31,61.9%
